Results as given in patent US10751319B2, “Collection device and methods for use” (CRITITECH, INC., priority 2015, dated 2020).
Values joined by “and” are separate entries in the source; they are usually repeats but may differ in a detail not shown here. Equal values may be shown once.

Assays:
Type in all cases: physicochemical
[1] = Bulk density; settings: room temperature
Procedure: The mass of the drug was measured to a nearest 0.1 mg, the volume was determined to the nearest 0.1 mL and the density calculated.

[2] = Docetaxel dissolution study, USP Apparatus II (Paddle); settings: methanol/water 15/85, 37° C., pH 7, 75 rpm
Procedure: At 5, 15, 30, 60, 120 and 225 minutes, a 5 mL aliquot was removed, filtered through a 0.22 μm filter, and analyzed on a UV/VIS spectrophotometer at 232 nm. Absorbance values of the samples were compared to those of standard solutions prepared in dissolution media to determine the amount of material dissolved.

[3] = BET analysis (surface area); settings: listed as raw paclitaxel
Procedure: A known mass between 200 and 300 mg of the analyte was added to a 30 mL sample tube. The loaded tube was then mounted to a Porous Materials Inc. SORPTOMETER®, model BET-202A. The automated test was then carried out using the BETWIN® software package and the surface area of each sample was subsequently calculated.

| Compound | Bulk Density [1] [g/mL] | Dissolution ([2]; 0 minutes) [%] | Dissolution ([2]; 5 minutes) [%] | Dissolution ([2]; 15 minutes) [%] | Dissolution ([2]; 30 minutes) | Dissolution ([2]; 60 minutes) [%] | Dissolution ([2]; 120 minutes) [%] | Dissolution ([2]; 225 minutes) [%] | Surface area [3] [m^2/g] |
| --- | --- | --- | --- | --- | --- | --- | --- | --- | --- |
| CC(=O)O[C@@]12CO[C@@H]1C[C@H](O)[C@@]1(C)C(=O)[C@H](O)C3=C(C)[C@@H](OC(=O)[C@H](O)[C@@H](NC(=O)OC(C)(C)C)c4ccccc4)C[C@@](O)([C@@H](OC(=O)c4ccccc4)[C@H]21)C3(C)C [Docetaxel Raw Material, docetaxel] | 0.24 | 0.0 | 3.2 | 6.9 | 11% and 11.2% | 16.4 | 22.4 | 26.8 | – |
| CC(=O)O[C@H]1C(=O)[C@@]2(C)[C@H]([C@H](OC(=O)c3ccccc3)[C@]3(O)C[C@H](OC(=O)[C@H](O)[C@@H](NC(=O)c4ccccc4)c4ccccc4)C(C)=C1C3(C)C)[C@]1(OC(C)=O)CO[C@@H]1C[C@@H]2O [Paclitaxel Raw Material, paclitaxel] | 0.26 | – | – | – | – | – | – | – | 7.25 |
